Laboratory results reported in patent US9593305B2, “Differentiation of pluripotent stem cells” (Janssen Biotech, Inc., priority 2008, dated 2017).

Test system: H1 human embryonic stem cells
Experiment: Step-wise differentiation, high content analysis of SOX17, cell number, insulin, glucagon (Example 16)
Type: cell-based
Description: The assay was initiated by aspirating the culture medium from each well and adding back an aliquot (0.5 ml) of test medium. Test conditions for the first step of differentiation were conducted over a three-day period, feeding daily by aspirating and replacing the medium from each well with fresh test medium. On the first day of assay, 100 ng/ml activin A (PeproTech; Cat #120-14) or 100 ng/ml GDF-8 (R&D Systems, Cat #788-G8) was added to respective assay wells where each growth factor was diluted into RPMI-1640 medium (Invitrogen; Cat #: 22400) with 2% Albumin Bovine Fraction V, Fatty Acid Free (FAF BSA) (Proliant Inc. Cat #: SKU 68700), and 20 ng/ml Wnt3a (R&D Systems; Cat #1324-WN/CF). On the second day of assay, 100 ng/ml activin A or 100 ng/ml GDF-8 was diluted into RPMI-1640 medium supplemented with 2% FAF BSA without Wnt3a. In some test samples using GDF-8, Wnt3a was replaced with a small molecule compound, added only on the first day of definitive endoderm differentiation. These small molecules included Compound 19 (2.5 μM in assay), Compound 202 (2.5 μM in assay), Compound 40 (2.5 μM in assay), or a commercially available GSK3 inhibitor BIO (0.5 μM in assay) (EMD Chemicals, Inc.; Cat #361550). At the conclusion of the first step of differentiation, cells from some wells were harvested for flow cytometry analysis to evaluate levels of CXCR4, a marker of definitive endoderm formation. Additional wells were harvested for RT-PCR analysis to measure other markers of differentiation.
Step 5 of the differentiation protocol was carried out over seven days in DMEM-high glucose with 0.1% Albumax, 0.5× Insulin-Transferrin-Selenium, and 1 μM Alk 5 inhibitor. […]
Imaging was performed using an IN Cell Analyzer 1000 (GE Healthcare) utilizing the 51008bs dichroic for cells stained with Hoechst 33342 and Alexa Fluor 488. […] Segmentation for the nuclei was determined based on gray-scale levels (baseline range 100-300) and nuclear size. Averages and standard deviations were calculated for each replicate data set. […]

Row | SMILES | relative cell numbers recovered through differentiation step 5 (GDF-8 with compound in step 1, relative to activin A and Wnt3a) | cell numbers and SOX17 expression after step 1 (100 ng/ml GDF-8 with 2.5 μM compound on first day)
1 | CN1CCC(=O)NCCCc2cncc(c2)-c2ncnc(n2)Nc2cccc(c2)C1 [Compound 19, 14-Methyl-3,5,7,14,18,24,28-heptaazatetracyclo[20.3.1.1˜2,6˜0.1˜8,12˜]octacosa-1(26), 2(28), 3,5,8(27), 9,11,22,24-nonaen-17-one] | decrease in cell number | –
2 | C=CCN1CC(=O)NCCCc2cncc(c2)-c2ncnc(n2)Nc2cccc(c2)C1 [Compound 40, 14-Prop-2-en-1-yl-3,5,7,14,17,23,27-heptaazatetracyclo[19.3.1.1˜2.6˜0.1˜8,12˜]heptacosa-1(25), 2(27), 3,5,8(26), 9,11,21,23-nonaen-16-one] | – | cell numbers in culture and SOX17 expression equivalent to treatment with activin A and Wnt3a
